What all share (assay type): biochemical
Test [1] concerns the target T1, papain (Carica papaya, UniProt P00784).
T1 sequence (P00784 134-345): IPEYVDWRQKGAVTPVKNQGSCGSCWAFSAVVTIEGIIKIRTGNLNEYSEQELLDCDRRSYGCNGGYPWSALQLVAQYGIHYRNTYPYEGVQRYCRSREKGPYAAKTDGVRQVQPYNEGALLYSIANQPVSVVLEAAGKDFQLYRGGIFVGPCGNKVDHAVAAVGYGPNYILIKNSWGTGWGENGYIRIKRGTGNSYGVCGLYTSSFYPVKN
Nature of the test: Inhibition of papain, incubation method. As to conditions: second-order rate constant, NI = no inhibition; for kinact/KI: pH 7.5, read-out: kobs/[I] papain. The protocol: (§1) The release of 7-amino-4-methylcoumarin was monitored (λex=360 nm, λem=465 nm) using a Tecan Spectra Fluor microplate reader. Pseudo first-order inactivation rate constants were obtained from plots of In vt/vo versus time.
The incubation method was also used for papain. The inhibition incubation buffer for papain was 50 mM Hepes buffer at pH 7.5, containing 2.5 mM DTT and 2.5 mM EDTA. The assay used the substrate Z-Phe-Arg-pNA (53.7 μM) in the same buffer. The approximate concentration of papain added to the incubation buffer was 0.29 mg/mL. The release of p-nitroanilide was monitored at 405 nm with a Molecular Devices Thermomax microplate reader.

For test [2], the target named is T2, caspase-1 (Homo sapiens, UniProt P29466, D381E).
T2 construct: His tag (N); made in house; host or cells: E. coli
T2 sequence (P29466 120-297 limits assumed): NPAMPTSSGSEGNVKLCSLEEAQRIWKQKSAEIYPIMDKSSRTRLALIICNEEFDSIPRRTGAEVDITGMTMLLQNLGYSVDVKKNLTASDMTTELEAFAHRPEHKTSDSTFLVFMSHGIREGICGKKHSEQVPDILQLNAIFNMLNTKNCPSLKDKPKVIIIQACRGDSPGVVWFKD
T2 sequence (P29466 317-404 D381E limits assumed): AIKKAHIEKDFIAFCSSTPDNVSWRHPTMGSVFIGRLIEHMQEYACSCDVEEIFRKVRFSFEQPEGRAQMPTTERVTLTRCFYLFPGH
Nature of the test: Caspase-1 progress curve assay. To be noted: D381E variant, substrate Ac-YVAD-AMC, 30° C. The method, boiled down: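 Autolysis-resistant D381E caspase-1 (E. coli, N-His tag), about 2 nM, added with 15 μM Ac-YVAD-AMC in HEPES/glycerol/EDTA buffer with 5 mM DTT to prewarmed compound at 30 °C. AMC fluorescence followed 900 s, triplicate curves fit to irreversible inactivation; kon (M^−1s^−1) from regression slope.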

In test [3] the target is T3, caspase-3 (Homo sapiens, UniProt P42574).
T3 construct: made in house; host or cells: E. coli
T3 sequence (P42574 29-175 limits assumed): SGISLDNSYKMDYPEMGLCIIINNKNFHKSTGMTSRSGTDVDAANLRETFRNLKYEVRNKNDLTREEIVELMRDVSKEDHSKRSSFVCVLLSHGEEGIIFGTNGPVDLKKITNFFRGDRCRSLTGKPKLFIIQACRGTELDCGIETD
T3 sequence (P42574 176-277 limits assumed): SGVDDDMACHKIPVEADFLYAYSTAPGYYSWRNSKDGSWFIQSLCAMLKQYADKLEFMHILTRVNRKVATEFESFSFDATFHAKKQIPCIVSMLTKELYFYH
Nature of the test: Caspase-3 progress curve assay. As to conditions: substrate Z-DEVD-AFC; NI = no inhibition. The method, boiled down:
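E. coli-expressed caspases, pre-activated 10 min at 37° C with 10 mM DTT, were added to 100 μM Z-DEVD-AFC plus inhibitor in 50 mM Hepes, 100 mM NaCl, 0.1% CHAPS, 10% sucrose, 10 mM DTT, pH 7.4. AFC fluorescence (ex 400/em 505 nm) was followed; inhibition rates and equilibria came from progress curves.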

The subject of test [4] is calpain. Nature of the test: Inhibition of calpain. As to conditions: second-order rate constant; NI = no inhibition.
Test [5] addresses cathepsin B (Homo sapiens, UniProt P07858). Nature of the test: Inhibition of cathepsin B, incubation method. As to conditions: second-order rate constant, NI = no inhibition; for kinact/KI: pH 6, read-out: kobs/[I] cathepsin B.
Text: as §1

With `CCOC(=O)[C@@H]1O[C@H]1C(=O)N(CC(=O)O)NC(=O)[C@@H](NC(=O)[C@H](CCC(=O)O)NC(=O)[C@H](CC(C)C)NC(=O)OCc1ccccc1)[C@@H](C)O` [26c (R,R), (2R,3R)-3-(N^2-(N-Benzyloxycarbonylleucylglutamylthreonyl)-N^1-carboxymethylhydrazinocarbonyl)oxirane-2-carboxylic Acid Ethyl Ester], the kinact/KI in test [1] came to 0.24 M⁻¹ s⁻¹. For the same compound, in test [2], the “k2 caspase-1” value came to 19570 M⁻¹ s⁻¹. For the same compound, the “k2 caspase-3” value in test [3] was found to be 3250 ± 160 M⁻¹ s⁻¹.

`CC(C)C[C@H](NC(=O)OCc1ccccc1)C(=O)NN(CCc1ccccc1)C(=O)[C@H]1O[C@@H]1C(=O)O` [Cbz-Leu-AHph-(2S, 3S)-EP-COOH, (2S,3S)-3-(N^2-(N-Benzyloxycarbonyleucyl)-N^1-phenylethylhydrazinocarbonyl)oxirane-2-carboxylic Acid]: in test [4], the “kobs/[I] calpain” value amounted to 2.12 M⁻¹ s⁻¹.

For `CCOC(=O)[C@H]1O[C@@H]1C(=O)N(CCC(N)=O)NC(=O)[C@H](Cc1ccccc1)NC(=O)[C@H](CC(C)C)NC(=O)OCc1ccccc1` [Cbz-Leu-Phe-AGln-(2S, 3S)-EP-COOEt, (2S,3S)-3-(N^2-(N-Benzyloxycarbonylleucylphenylalanyl)-N^1-carbamoylethylhydrazinocarbonyl)oxirane-2-carboxylic Acid Ethyl Ester], the kinact/KI in test [5] was determined as 4.73 M⁻¹ s⁻¹.

With `CCOC(=O)[C@@H]1O[C@H]1C(=O)N(CC(N)=O)NC(=O)[C@H](C)NC(=O)[C@H](C)NC(=O)OCc1ccccc1` (relative stereo) [Cbz-Ala-Ala-AAsn-trans-EP-COOEt, trans-3-(N^2-(N-Benzyloxycarbonylalanylalanyl)-N^1-carbamoylmethylhydrazinocarbonyl)oxirane-2-carboxylic Acid Ethyl Ester], the kinact/KI in test [5] is 1.27 M⁻¹ s⁻¹.

On to `CC(C)[C@H](NC(=O)CCc1ccccc1)C(=O)N[C@@H](C)C(=O)NN(CC(=O)O)C(=O)[C@H]1O[C@@H]1C(=O)OCc1ccccc1` [23d (S,S)], for which the “kobs/[I] cathepsin B” value in test [5] was 0.81 M⁻¹ s⁻¹. For the same compound, in test [2], the “k2 caspase-1” value amounted to 52140 ± 5295 M⁻¹ s⁻¹. The “k2 caspase-3” value in test [3] was determined as 1470 ± 40 M⁻¹ s⁻¹.

For the compound `CCOC(=O)[C@@H]1O[C@H]1C(=O)N(CC(C)C)NC(=O)C(Cc1ccc2ccccc2c1)NC(=O)CCC(=O)O` (relative stereo) [Suc-Np2-ALeu-trans-EP-COOEt, trans-3-(N^2-(N-Succinyl-2-naphthylalanyl)-N^1-isobutylhydrazinocarbonyl)oxirane-2-carboxylic Acid Ethyl Ester], the “kobs/[I] papain” value in test [1] stood at 1.39 M⁻¹ s⁻¹. Besides, the “kobs/[I] cathepsin B” value in test [5] was determined as 0.8 M⁻¹ s⁻¹.

On to `C[C@H](NC(=O)OCc1ccccc1)C(=O)N[C@@H](C)C(=O)NN(CC(N)=O)C(=O)[C@@H]1O[C@H]1C(=O)OCc1ccccc1` (relative stereo) [Cbz-Ala-Ala-AAsn-trans-EP-COOCH2Ph, trans-3-(N^2-(N-Benzyloxycarbonylalanylalanyl)-N^1-carbamoylmethylhydrazinocarbonyl)oxirane-2-carboxylic Acid Benzyl Ester], for which the kinact/KI in test [5] stood at 1.09 M⁻¹ s⁻¹.

As for `CCOC(=O)[C@H]1O[C@@H]1C(=O)N(CC(=O)O)NC(=O)[C@@H](NC(=O)[C@H](CCC(=O)O)NC(=O)[C@H](CC(C)C)NC(=O)OCc1ccccc1)[C@@H](C)O` [26c (S,S), (2S,3S)-3-(N^2-(N-Benzyloxycarbonylleucylglutamylthreonyl)-N^1-carboxymethylhydrazinocarbonyl)oxirane-2-carboxylic Acid Ethyl Ester], in test [1], the kinact/KI worked out at 0.47 M⁻¹ s⁻¹. For the same compound, the “k2 caspase-1” value in test [2] was found to be 25730 M⁻¹ s⁻¹. In addition, the “k2 caspase-3” value in test [3] was found to be 3210 ± 315 M⁻¹ s⁻¹.

Turning to `CCOC(=O)[C@@H]1O[C@H]1C(=O)N(NCc1ccccc1)C(=O)OCc1ccccc1` (relative stereo) [Cbz-APhe-trans-EP-COOEt, trans-3-(N^2-Benzyl-N^1-benzyloxycarbonylhydrazinocarbonyl)oxirane-2-carboxylic Acid Ethyl Ester], the results for the kinact/KI in test [1] and in test [5] were 8.5 M⁻¹ s⁻¹ and 1.8 M⁻¹ s⁻¹, respectively.

`CCOC(=O)[C@@H]1O[C@H]1C(=O)N(CCC(N)=O)NC(=O)[C@H](Cc1ccccc1)NC(=O)[C@H](CC(C)C)NC(=O)OCc1ccccc1` (relative stereo) [Cbz-Leu-Phe-AGln-trans-EP-COOEt, trans-3-(N^2-(N-Benzyloxycarbonylleucylphenylalanyl)-N^1-carbamoylethylhydrazinocarbonyl)oxirane-2-carboxylic Acid Ethyl Ester]: the kinact/KI in test [1] came out at 0.9 M⁻¹ s⁻¹; in test [5] it was 1.3 M⁻¹ s⁻¹.

For `O=C(OCc1ccccc1)N(NCc1ccccc1)C(=O)[C@@H]1O[C@H]1CCc1ccccc1` (relative stereo) [Cbz-APhe-trans-EP-CH2CH2Ph, trans-3-(N^2-Benzyl-N^1-benzyloxycarbonylhydrazinocarbonyl)-2-(2-phenylethyl)oxirane], the kinact/KI in test [1] was found to be 0.92 M⁻¹ s⁻¹.

With `CCCCC(NC(=O)OC(C)(C)C)C(=O)NN(CCc1ccccc1)C(=O)C1OC1CCc1ccccc1` (stereo not drawn) [Boc-Nle-AHph-trans-EP-CH2CH2Ph, Boc-Nle-AHph-(trans)-EP-CH2CH2Ph], the “kobs/[I] papain” value in test [1] was determined as 0.5 M⁻¹ s⁻¹.

With `CCOC(=O)[C@@H]1O[C@H]1C(=O)N(CC(C)C)NC(=O)[C@H](Cc1ccccc1)NC(=O)OCc1ccccc1` (relative stereo) [Cbz-Phe-ALeu-trans-EP-COOEt, trans-3-(N^2-(N-3-Benzyloxyphenylalanyl)-N^1-isobutylhydrazinocarbonyl)oxirane-2-carboxylic Acid Ethyl Ester], the “kobs/[I] papain” value in test [1] was 0.91 M⁻¹ s⁻¹. Further, the “kobs/[I] cathepsin B” value in test [5] was found to be 3.61 M⁻¹ s⁻¹.

For the compound `CC(C)[C@H](NC(=O)CCc1ccccc1)C(=O)N[C@@H](C)C(=O)NN(CC(=O)O)C(=O)[C@@H]1O[C@H]1C(=O)OCc1ccccc1` (relative stereo) [23d (trans), trans-3-(N^2-(N-3-Phenylpropanoylvalylalanyl)-N^1-carboxylmethylhydrazinocarbonyl)oxirane-2-carboxylic Acid Benzyl Ester], the kinact/KI in test [1] and in test [5] was less than 10 M⁻¹ s⁻¹ in each case. Besides, the “k2 caspase-1” value in test [2] is 18070 ± 2625 M⁻¹ s⁻¹. Moreover, in test [3], the “k2 caspase-3” value stood at 680 ± 140 M⁻¹ s⁻¹.

Turning to `CC(C)CN(NC(=O)[C@H](Cc1ccccc1)NC(=O)OCc1ccccc1)C(=O)[C@@H]1O[C@H]1CCc1ccccc1` (relative stereo) [Cbz-Phe-ALeu-trans-EP-CH2CH2Ph], the “kobs/[I] papain” value in test [1] came out at 0.7 M⁻¹ s⁻¹.

`CCOC(=O)CN(NC(=O)[C@H](C)NC(=O)[C@H](C)NC(=O)OCc1ccccc1)C(=O)[C@@H]1O[C@H]1C(=O)OCC` (relative stereo) [Cbz-Ala-Ala-NHN(CH2COOEt)-trans-EP-COOEt, trans-3-(N^2-(N-Benzyloxycarbonylalanylalanyl)-N^1-ethoxycarbonylmethylhydrazinocarbonyl)oxirane-2-carboxylic Acid Ethyl Ester]: the figures for the kinact/KI in test [1] and in test [5] were 8.17 M⁻¹ s⁻¹ and 2.53 M⁻¹ s⁻¹, respectively.

For `O=C(N[C@@H](Cc1ccccc1)C(=O)NN(Cc1ccccc1)C(=O)[C@@H]1O[C@H]1CCc1ccccc1)OCc1ccccc1` (relative stereo) [Cbz-Phe-APhe-trans-EP-CH2CH2Ph, trans-3-(N^2-(N-3-Benzyloxyphenylalanyl)-N^1-benzylhydrazinocarbonyl)-2-(2-phenylethyl)oxirane], the “kobs/[I] papain” value in test [1] stood at 0.5 M⁻¹ s⁻¹.

The values are drawn from patent publication US7056947B2, “Aza-peptide epoxides” (Georgia Tech Research Corp., priority 2002, dated 2006).
